According to patent US20040110821A1, “GAL3 receptor antagonists for the treatment of affective disorders” (priority 2002, published 2004):

Key:
human 5HT1D receptor = biological target: T1, human 5HT1D receptor (Homo sapiens, UniProt P28221); assay: Radioligand binding at human 5HT1D receptor; conditions: read-out: h5HT1D Ki
T1 construct: expressed in transfected cells
Method: Human 5HT1B, 5HT1D, 5HT1E, 5HT1F, and 5HT7 ReceDtors: The cell lysates of LM(tk-) clonal cell line stably transfected with the genes encoding each of these 5HT receptor-subtypes were prepared as described above. Cell membranes were suspended in 50 mM Tris-HCl buffer (pH 7.4 at 37° C.) containing 10 mM MgCl2, 0.2 mM EDTA, 10 µM pargyline, and 0.1% ascorbate. […] Nonspecific binding was determined in the presence of 10 μM serotonin. The bound radioligand was separated by filtration through GF/B filters using a cell harvester.
(§1) Binding data were analyzed using nonlinear regression and statistical techniques available in the GraphPAD Prism package (San Diego, Calif.). Enzymatic assay data were derived from a standard curve of reference compound data.

human 5HT6 receptor = biological target: T2, human 5HT6 receptor (Homo sapiens, UniProt P50406); assay: Radioligand binding at 5-HT6 receptor; conditions: read-out: h5HT6 Ki
T2 construct: expressed in transfected cells
T2 sequence (P50406 whole entry): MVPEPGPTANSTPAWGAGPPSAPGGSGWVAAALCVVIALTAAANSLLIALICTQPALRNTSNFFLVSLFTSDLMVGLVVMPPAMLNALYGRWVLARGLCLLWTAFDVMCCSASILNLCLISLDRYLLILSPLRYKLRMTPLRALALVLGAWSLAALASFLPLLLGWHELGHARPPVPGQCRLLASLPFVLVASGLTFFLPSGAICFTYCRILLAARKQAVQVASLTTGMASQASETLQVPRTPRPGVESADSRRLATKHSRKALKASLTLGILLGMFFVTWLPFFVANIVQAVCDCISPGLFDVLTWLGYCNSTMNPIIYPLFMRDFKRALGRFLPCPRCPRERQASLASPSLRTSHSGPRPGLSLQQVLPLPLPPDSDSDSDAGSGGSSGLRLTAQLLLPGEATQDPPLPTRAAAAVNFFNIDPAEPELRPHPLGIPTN
Method: Other 5-HT ReceDtors: Other serotonin receptor binding assays were performed according to published methods: rat 5HT2c receptor (Julius et al., 1988); and 5-HT6 (Monsma, et al., 1993). The binding assays using the 5-HT4 receptor were performed according to the procedures described in U.S. Pat. No. 5,766,879, the disclosure of which is hereby incorporated by reference in its entirety into this application.
as §1

DA transporter = biological target: T3, DA transporter (Rattus norvegicus, UniProt P23977); assay: Binding at native DA transporter; conditions: read-out: rDA Uptk Ki
T3 construct: native, tissue-derived transporters; from tissue
T3 sequence (P23977 whole entry): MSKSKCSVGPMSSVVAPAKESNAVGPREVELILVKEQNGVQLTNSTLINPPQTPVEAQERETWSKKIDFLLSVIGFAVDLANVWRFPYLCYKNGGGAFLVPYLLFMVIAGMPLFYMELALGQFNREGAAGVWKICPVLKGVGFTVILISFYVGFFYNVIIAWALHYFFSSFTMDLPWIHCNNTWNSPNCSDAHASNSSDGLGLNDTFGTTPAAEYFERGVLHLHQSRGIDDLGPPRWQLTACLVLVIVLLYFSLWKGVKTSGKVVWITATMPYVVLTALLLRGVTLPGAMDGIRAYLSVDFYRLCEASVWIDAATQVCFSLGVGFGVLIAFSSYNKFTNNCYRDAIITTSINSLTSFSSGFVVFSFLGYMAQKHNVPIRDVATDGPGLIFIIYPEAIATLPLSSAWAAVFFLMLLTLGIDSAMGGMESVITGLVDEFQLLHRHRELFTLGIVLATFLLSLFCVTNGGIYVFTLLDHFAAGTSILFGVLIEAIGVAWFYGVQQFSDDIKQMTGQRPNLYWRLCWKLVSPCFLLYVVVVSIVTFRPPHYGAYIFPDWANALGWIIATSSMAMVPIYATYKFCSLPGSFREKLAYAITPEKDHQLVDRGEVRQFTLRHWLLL
Method: The methods to determine binding affinity at native transporters are described in the following publications: 5HT transporter and NE transporter (Owens et al., 1997), and DA transporter (Javitch et al, 1984).
as §1

[1] = biological target: T4, human α2A adrenergic receptor (Homo sapiens, UniProt P08913); assay: Binding at human α2A adrenergic receptor; conditions: read-out: hα2A Ki
T4 construct: expressed in transfected cells
T4 sequence (P08913 whole entry): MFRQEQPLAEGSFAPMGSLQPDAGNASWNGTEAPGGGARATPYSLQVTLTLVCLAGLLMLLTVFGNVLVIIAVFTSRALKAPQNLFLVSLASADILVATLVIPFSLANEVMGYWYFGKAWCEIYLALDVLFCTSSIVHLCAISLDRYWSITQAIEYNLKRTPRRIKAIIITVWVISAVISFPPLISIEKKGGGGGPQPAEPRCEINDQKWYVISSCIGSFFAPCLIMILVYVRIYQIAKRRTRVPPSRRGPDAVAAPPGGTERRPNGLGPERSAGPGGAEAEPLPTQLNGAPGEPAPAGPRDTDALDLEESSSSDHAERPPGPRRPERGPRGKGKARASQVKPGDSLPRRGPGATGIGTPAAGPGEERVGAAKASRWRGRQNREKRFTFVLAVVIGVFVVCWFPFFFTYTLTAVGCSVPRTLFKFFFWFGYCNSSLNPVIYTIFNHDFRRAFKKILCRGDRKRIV
Source text: (§2) Other receptors: Cell membranes expressing human dopamine D1, D2, D4 and rat D3 receptors were purchased through BioSignal, Inc. (Montreal, Canada). Binding assays using the histamine H1 receptor; dopamine receptors; and α1A, α1B, and α2 adrenergic receptors may be carried out according to the procedures described in U.S. Pat. No. 5,780,485, the disclosure of which is hereby incorporated by reference in its entirety into this application. Binding assays using the dopamine D5 receptor may be carried out according to the procedures described in U.S. Pat. No. 5,882,855, the disclosure of which is hereby incorporated by reference in its entirety into this application. Binding assays for the human α1D adrenergic receptor may be carried out according to the procedures described in U.S. Pat. No. 6,156,518, the disclosure of which is hereby incorporated by reference in its entirety into this application.
as §1

[2] = biological target: T5, human α2B adrenergic receptor (Homo sapiens, UniProt P18089); assay: Binding at human α2B adrenergic receptor; conditions: read-out: hα2B Ki
T5 construct: expressed in transfected cells
T5 sequence (P18089 whole entry): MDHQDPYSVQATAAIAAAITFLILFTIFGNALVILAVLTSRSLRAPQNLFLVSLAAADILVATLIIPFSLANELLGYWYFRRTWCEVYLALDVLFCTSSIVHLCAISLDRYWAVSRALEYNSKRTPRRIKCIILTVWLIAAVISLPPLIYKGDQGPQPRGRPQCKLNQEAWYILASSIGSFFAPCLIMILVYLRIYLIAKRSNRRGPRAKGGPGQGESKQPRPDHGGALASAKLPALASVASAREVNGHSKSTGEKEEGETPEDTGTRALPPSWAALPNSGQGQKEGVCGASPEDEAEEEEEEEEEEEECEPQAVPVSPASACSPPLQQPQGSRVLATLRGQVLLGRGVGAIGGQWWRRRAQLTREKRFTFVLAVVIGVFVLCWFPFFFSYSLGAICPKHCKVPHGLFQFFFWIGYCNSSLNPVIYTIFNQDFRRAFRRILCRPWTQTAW
Source text: as §2, §1

[3] = biological target: T6, human dopamine D2 receptor (Homo sapiens, UniProt P14416); assay: Binding at human dopamine D2 receptor; conditions: read-out: hD2 Ki
T6 construct: purchased BioSignal, Inc. (Montreal, Canada)
T6 sequence (P14416 whole entry): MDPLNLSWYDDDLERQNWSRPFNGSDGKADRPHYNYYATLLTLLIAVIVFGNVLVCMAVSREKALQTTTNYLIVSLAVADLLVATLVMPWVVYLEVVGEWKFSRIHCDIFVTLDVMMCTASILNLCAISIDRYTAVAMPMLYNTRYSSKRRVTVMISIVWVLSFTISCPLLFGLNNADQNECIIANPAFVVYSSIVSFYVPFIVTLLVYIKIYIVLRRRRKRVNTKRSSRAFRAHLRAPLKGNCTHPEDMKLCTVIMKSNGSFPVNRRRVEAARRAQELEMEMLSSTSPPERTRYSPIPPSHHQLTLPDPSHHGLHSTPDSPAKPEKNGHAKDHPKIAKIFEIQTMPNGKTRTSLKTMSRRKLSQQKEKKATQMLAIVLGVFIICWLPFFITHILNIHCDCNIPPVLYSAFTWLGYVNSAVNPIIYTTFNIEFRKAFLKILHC
Source text: as §2, §1

[4] = biological target: T7, human dopamine D5 receptor (Homo sapiens, UniProt P21918); assay: Binding at dopamine D5 receptor; conditions: read-out: hD5 Ki
T7 construct: expressed in transfected cells
T7 sequence (P21918 whole entry): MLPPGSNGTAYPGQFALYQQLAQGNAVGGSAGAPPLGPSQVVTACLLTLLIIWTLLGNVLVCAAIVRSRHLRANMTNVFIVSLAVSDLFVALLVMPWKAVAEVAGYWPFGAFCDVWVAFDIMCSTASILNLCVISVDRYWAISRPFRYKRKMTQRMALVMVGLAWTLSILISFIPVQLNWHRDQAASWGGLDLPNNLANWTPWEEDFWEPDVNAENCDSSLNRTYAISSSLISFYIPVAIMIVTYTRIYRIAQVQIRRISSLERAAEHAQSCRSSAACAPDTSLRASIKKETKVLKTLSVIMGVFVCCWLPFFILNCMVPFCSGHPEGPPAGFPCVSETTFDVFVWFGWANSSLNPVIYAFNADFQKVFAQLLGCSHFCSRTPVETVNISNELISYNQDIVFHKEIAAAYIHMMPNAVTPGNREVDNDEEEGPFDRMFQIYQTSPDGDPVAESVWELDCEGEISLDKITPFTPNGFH
Source text: as §2, §1

T1 sequence (P28221 whole entry): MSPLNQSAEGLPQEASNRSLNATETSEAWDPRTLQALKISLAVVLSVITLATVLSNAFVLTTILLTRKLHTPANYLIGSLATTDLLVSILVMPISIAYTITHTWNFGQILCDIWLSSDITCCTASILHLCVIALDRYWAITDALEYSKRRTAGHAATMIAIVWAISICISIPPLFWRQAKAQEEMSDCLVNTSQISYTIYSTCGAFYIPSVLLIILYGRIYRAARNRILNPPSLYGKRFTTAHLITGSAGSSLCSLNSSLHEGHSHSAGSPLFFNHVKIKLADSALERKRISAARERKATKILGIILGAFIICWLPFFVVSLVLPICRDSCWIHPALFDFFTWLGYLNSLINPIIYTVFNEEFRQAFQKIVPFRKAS

## O=C1C(=Nc2cccc(C(F)(F)F)c2)c2ccccc2N1c1ccccc1 [Example 92, 1-PHENYL-3-[[3-(TRIFLUOROMETHYL)PHENYL]IMINO]-1,3-DIHYDRO-2H-INDOL-2-ONE]
Human 5HT1D receptor
  Ki: 32.1 µM
Human 5HT6 receptor
  Ki: > 50 µM
DA transporter
  Ki: 17.8 µM
[1]
  Ki: 21.9 µM
[2]
  Ki: > 50 µM
[3]
  Ki: 41.4 µM
[4]
  Ki: 29.3 µM
